Data reported in patent publication US4863942A, “Novel resorcinol ethers and anti-inflammatory and anti-allergic use thereof” (Ciba-Geigy Corporation, priority 1984, dated 1989).
Read-outs that look alike come from different tables or passages of the source.

Columns and labels:
[1] = molecular target: phospholipase C obtained from human thrombocytes; assay: In vitro test for determining the inhibition of phospholipase C obtained from human thrombocytes; assay type: biochemical
Method: In vitro test for determining the inhibition of phospholipase C obtained from human thrombocytes
Human thrombocytes are obtained from "buffy coats" by fractional centrifugation and then deep-frozen. Phospholipase C is released by ultrasound treatment of the cell suspension and, after ultracentrifugation (150,000 g, 1 hour) is in soluble form in the supernatant.
In order to determine the enzyme activity, enzyme (20-100 μg protein) is incubated for 5 minutes at 37° in 0.025M tris/malate buffer pH 6 with the addition of 0.2 mM CaCl2 and 0.02 mM radioactively labelled substrate, phosphatidyl- [^14 C]-inositol. The reaction is stopped by extraction by shaking with CHCl3 /CH3 OH 2:1 (v/v). Substrate that has not been consumed is extracted into the organic phase while the reaction product, ^14 C-inositol phosphate, remains in the aqueous phase and can be measured by radiometry of an aliquot.
In order to ascertain the inhibitory action of test substances on phospholipase C, these substances are added to the incubation mixture in the form of solutions in water or dimethyl sulphoxide (final concentration in the mixture up to 5% by volume). The strength of action of the test substances is expressed by the IC50, that is to say the concentration that brings about a 50% inhibition of the control activity. The IC50 is ascertained on a graph by entering the percentage inhibition on the ordinate against the logarithm of the concentration (μM) on the abscissa.

[2] = molecular target: phospholipase A2 obtained from human leucocytes; assay: In vitro test for determining the inhibition of phospholipase A2 obtained from human leucocytes; assay type: biochemical; details: pH 7, 37°, one hour, 14C-oleic acid labelled E. coli phospholipids
Excerpt: In vitro test for determining the inhibition of phospholipase A2 obtained from human leucocytes Human neutrophilic polymorphonuclear leucocytes are isolated from "buffy coats" by multistage fractional sedimentation and deep-frozen. Phospholipase A2 is extracted from the cell suspension by homogenisation with the addition of ice-cold 0.36N H2 SO4 in 2M NaCl and the supernatant obtained after centrifugation at 10,000 g is dialysed against sodium acetate buffer pH 4.5. […] The reaction is stopped by the addition of Dole reagent (isopropanol/heptane/1N H2 SO4 40:10:1, v/v) and the ^14 C-oleic acid released selectively by phospholipase A2 is extracted. […] The ^14 C-oleic acid in the eluate is determined radiometrically. In order to ascertain the inhibitory action of test substances on phospholipase A2, these substances are added to the incubation mixture in the form of solutions in water, dimethyl sulphoxide (final concentration in the mixture up to 5% by volume) or ethanol (final concentration in the mixture up to 2.5% by volume). The strength of action of the test substances is expressed by the IC50, that is to say the concentration that brings about a 50% inhibition of the control activity The IC50 is ascertained on a graph by entering the percentage inhibition on the ordinate against the logarithm of the concentration (μM) on the abscissa.

[3] = system: LTD4-induced bronchospasms; assay: Bronchoconstriction test in guinea-pigs (in vivo, aerosol), LTD4-induced bronchospasm; details: aerosol treatment, compliance in third minute after LTD4 aerosol
Method: (§1) For example, they have an anti-allergic action which is based on a pronounced LTD4 (leucotriene-D4) and PAF (PAF-acetoether) antagonism.
Bronchoconstriction test in guinea-pigs (in vivo, aerosol)
Male guinea-pigs weighing from 400 to 700 g are anaesthetised intraperitoneally with 1.4 g/kg of urethane, and a polyethylene tube is introduced into the jugular vein. A second polyethylene tube is introduced into the trachea. The pressure in the oesophagus is recorded by means of a tube which is introduced into the oesophagus and which is connected to a Statham pressure transducer. […] The flow is measured by means of this arrangement. […]
Aqueous solutions are each freshly prepared and introduced by means of an on-stream drug vial into the chamber of the spray device. […] The reduction in the compliance in the third minute after the administration of LTD4 is read by comparing the average value of three animals with the average value of three control animals and the percentage inhibition of the compliance is calculated in accordance with the following formula: [formula] If different concentrations of active ingredient are investigated, then the percentage inhibition for each concentration is recorded by entering the log concentration on the abscissa against the percentage inhibition on the ordinate. […]

[4] = system: LTD4-induced contractions of the isolated ileum; assay: Inhibitory action on LTD4-induced contractions of the guinea-pig ileum; assay type: cell-based, guinea-pigs; details: Cavia porcellus; synthetic LTD4, guinea-pig ileum segments in Tyrode's solution, 38° C.
Method: as §1
Inhibitory action on LTD4 -induced contractions of the guinea-pig ileum
Contractions, the severity of which is recorded, are induced by synthetic LTD4 (leucotriene-D4, potassium salt) in ileum segments that have been taken from guinea-pigs having a body weight of from 300 to 400 g, fastened in an organ bath in Tyrode's solution (38° C., gassing with 95% O2 and 5% CO2) and charged with […]. The degree of inhibition of these contractions that is attributable to the LTD4 -antagonistic action of the test substance is measured. The concentration of test substance that reduces LTD4 -induced contractions to 50% of the starting value is ascertained, this concentration being termed IC50.

Structure (SMILES): CCCc1c(OCCCOc2cccc(NC(=O)c3nnn[nH]3)c2C#N)ccc(C(C)=O)c1O [N-{3-[3-(4-acetyl-3-hydroxy-2-n-propylphenoxy)-propoxy]-2-cyanophenyl}-1H-tetrazole-5-carboxamide]
- IC50 ([1]; pH 6, 37°, 5 minutes, phosphatidyl-[14C]-inositol, read-out: IC50): 14 µM
- IC50 ([2]; read-out: IC50): 20 µM

Structure (SMILES): CCN(CC)CCCC(C)Nc1c2ccc(Cl)cc2nc2ccc(OC)cc12 (stereo not drawn) [mepacrine, reference compound]
- IC50 ([1]; mepacrine under the test conditions described, read-out: IC50): 20 µM
- IC50 ([2]; read-out: IC50): 1600 µM

Structure (SMILES): CCCc1c(OCC(O)COc2cccc(NC(=O)C(=O)O)c2)ccc(C(C)=O)c1O (stereo not drawn) [N-{3-[3-(4-acetyl-3-hydroxy-2-n-propyl-phenoxy)-2-hydroxypropoxy]-phenyl}-oxamic acid, reference compound]
- IC50 [2]: inactive at 100

Structure (SMILES): CCCc1c(OCCCOc2cccc(NC(=O)C(=O)O)c2)ccc(C(C)=O)c1O [N-{3-[3-(4-acetyl-3-hydroxy-2-n-propylphenoxy)-propoxy]-phenyl}-oxamic acid]
- IC50 ([2]; read-out: IC50): 23 µM

Structure (SMILES): CCCc1c(OCCCOc2cccc(NC(=O)C(=O)O)c2C#N)ccc(C(C)=O)c1O [N-{3-[3-(4-acetyl-3-hydroxy-2-n-propylphenoxy)-propoxy]-2-cyanophenyl}-oxamic acid]
- IC50 ([2]; read-out: IC50): 30 µM

Structure (SMILES): CCCc1c(OCCCOc2cc(NC(=O)C(=O)O)c(C)cc2Br)ccc(C(C)=O)c1O [N-{3-[3-(4-acetyl-3-hydroxy-2-n-propylphenoxy)-propoxy]-4-bromo-6-methylphenyl}-oxamic acid]
- IC50 [3]: 0.033 % of the aerosol solution
- IC50 ([2]; read-out: IC50): 15 µM

Structure (SMILES): CCCc1c(OCCCOc2cc(NC(=O)c3nnn[nH]3)c(C)cc2Br)ccc(C(C)=O)c1O [N-{3-[3-(4-acetyl-3-hydroxy-2-n-propylphenoxy)-propoxy]-4-bromo-6-methylphenyl}-1H-tetrazole-5-carboxamide]
- IC50 [4]: 0.008 µM
- IC50 ([2]; read-out: IC50): 10 µM

Structure (SMILES): CCCc1c(OCC(O)COc2cccc(NC(=O)C(=O)O)c2C#N)ccc(C(C)=O)c1O (stereo not drawn) [N-{3-[3-(4-acetyl-3-hydroxy-2-n-propyl-phenoxy)-2-hydroxypropoxy]-2-cyanophenyl}-oxamic acid, reference compound]
- IC50 ([1]; pH 6, 37°, 5 minutes, phosphatidyl-[14C]-inositol): inactive at 100
- IC50 [2]: inactive at 100

Structure (SMILES): CCCc1c(OCCCOc2ccc(C)c(NC(=O)C(=O)O)c2)ccc(C(C)=O)c1O [N-{3-[3-(4-acetyl-3-hydroxy-2-n-propylphenoxy)-propoxy]-6-methylphenyl}-oxamic acid]
- IC50 [4]: 0.015 µM
- IC50 [3]: 0.024 % of the aerosol solution
